Assay results reported in publication PMC8022858, “Discovery of bone morphogenetic protein 7-derived peptide sequences that attenuate the human osteoarthritic chondrocyte phenotype” (Molecular Therapy. Methods & Clinical Development, 2021).

Tests used:
[1] = test system: BRE reporter (SMAD1/5/8 dependent) in SW1353 chondrocytic cells; test: BRE firefly luciferase reporter assay; assay type: cell-based; conditions: 8 h peptide exposure, firefly normalized to Gaussia luciferase, relative to control (Figure 5B)
Method: Figure 5 Molecular characterization of peptides p[63−82] and p[113−132] (A) A pool of OA-HACs (n = 4 donors) was transfected with a scrambled siRNA or with an NKX3-2 siRNA (100 nM siRNA) and cultured for 24 h. Cultures were then exposed to peptide p[63−82] or p[113−132] (100 nM peptide). Samples were harvested 24 h later and analyzed for the expression of the indicated mRNAs (normalized to 28S rRNA). (B) SW1353 chondrocytic cells were transfected with BRE (SMAD1/5/8 reporter) or CAGA12 (SMAD2/3 reporter) firefly luciferase-reporter plasmids. A CMV-Gaussia plasmid was cotransfected as a transfection control. Cells were then cultured for 24 h and subsequently exposed to control, p[63−82], or p[113−132] for 8 h. Firefly and Gaussia bioluminescence were measured in cells and medium (respectively), and relative light units (RLUs) of firefly luciferase were normalized for the Gaussia luciferase signal. The normalized firefly luciferase signal of the control condition was set at 1, and peptide conditions were calculated relative to the control condition (FL/GL). Error bars represent mean ± SEM; statistical significance for peptide conditions versus siScrambled or siNKX3-2 (A) or control condition (B) as determined by unpaired two-tailed Student’s t test is represented as ∗p < 0.05, ∗∗p < 0.01, and ∗∗∗p < 0.001. […]

OA-HACs = test: Duration of chondrocyte phenotype modulation, single versus multiple peptide addition, 10-day follow-up; assay type: cell-based, human; conditions: 100 nM; for COL10A1 gene expression, continuous exposure / inhibition of MMP13 and COX-2 expression, continuous exposure / COL2A1 mRNA expression, continuous exposure / inhibition of COL10A1, MMP13, and COX-2 gene expression after single dose, up to and including day / expression of COL10A1, MMP13, and COX-2 at day 10, single dose / timing of action on COL2A1 after single dose: OA-HAC pool (n = 3 donors); for COL10A1 gene expression, continuous exposure / inhibition of MMP13 and COX-2 expression, continuous exposure: multiple addition; for COL10A1 gene expression, continuous exposure: 10 days (Figure 4B); for inhibition of MMP13 and COX-2 expression, continuous exposure: 10 days (Figures 4C, 4D); for COL2A1 mRNA expression, continuous exposure: peptide added every other day (multiple), 10 days (Figure 4A); for inhibition of COL10A1, MMP13, and COX-2 gene expression after single dose, up to and including day: single dose at start, sampled every 2 days; for timing of action on COL2A1 after single dose: compared with timing for COL10A1, MMP13, COX-2; for detectable changes in chondrocyte gene expression phenotype after a single exposure: OA-HAC pool
Method: The duration of chondrocyte phenotypic change induced by candidate peptides p[63−82] and p[113−132] was determined by exposing OA-HACs to a single dose of peptide or continuously keeping the peptides present during OA-HAC culture. In both cases, the phenotype of the OA-HACs was analyzed every other day during a 10-day follow-up. Non-OA-HACs were used as a reference for chondrocyte phenotype status.
Figure 4 Duration of chondrocyte phenotype modulation by BMP7-derived peptides A pool of OA-HACs (n = 3 donors) was cultured in the presence or absence of 100 nM peptides p[63−82] or p[113−132] and compared to a pool of human articular chondrocytes from a non-OA source. The medium was changed every 2 days. Peptides were added at the start of the experiment and subsequently at every medium change (multiple) or only at the start of the experiment and not during every subsequent medium change (single). At days 0, 2, 4, 6, 8, and 10 in culture, samples were harvested and analyzed for the expression of the indicated mRNAs by quantitative real-time PCR (normalized for 28S rRNA expression) (A) COL2A1 mRNA expression. (B) COL10A1 mRNA expression. (C) MMP13 mRNA expression. (D) COX-2 mRNA expression. In graphs, error bars represent mean ± SEM; data are presented relative to the “control OA” condition of each time point. Statistical differences were calculated to control conditions. Error bars represent mean ± SEM, and statistical significance for peptide conditions or control non-OA versus control OA condition as determined by unpaired two-tailed Student’s t test is represented as ∗p < 0.05, ∗∗p < 0.01, and ∗∗∗p < 0.001.
For the peptide-screening and alanine-scanning experiments, cDNA was prepared using the Cells-to-Ct kit (Invitrogen) according to the manufacturer’s protocol. For the other experiments, cells or homogenized tissues (Mikro-Dismembrator; Braun Biotech International) were lysed in TRIzol (Life Technologies) and RNA isolation and cDNA synthesis were performed as described earlier.[27]^,[57] Quantitative real-time PCR was performed using Takyon qPCR Master Mix plus blue for SYBR Green (Eurogentec). A CFX96 Real-Time PCR Detection System (Bio-Rad) was used for amplification: initial denaturation 95°C for 10 min, followed by 40 cycles of amplification (denaturing 15 s at 95°C and annealing 1 min at 60°C). Data were analyzed using the standard curve method, mRNA expression was normalized to a reference gene (28S rRNA), and gene expression was calculated as fold change as compared to control conditions.

Substance	BRE reporter activity [1]	COL10A1 gene expression, continuous exposure (OA-HACs)	inhibition of MMP13 and COX-2 expression, continuous exposure (OA-HACs)	COL2A1 mRNA expression, continuous exposure (OA-HACs)	inhibition of COL10A1, MMP13, and COX-2 gene expression after single dose, up to and including day (OA-HACs)	expression of COL10A1, MMP13, and COX-2 at day 10, single dose (OA-HACs)	timing of action on COL2A1 after single dose (OA-HACs)	detectable changes in chondrocyte gene expression phenotype after a single exposure (OA-HACs)
H-AAYYSEGESAFPLNSYMNAT-OH [p[63−82]]	induce	steadily decreased over time	continuously observed during the treatment period	overtime increasing	up to 8 day	indistinguishable from non-treated OA HACs	not detectable anymore from day 8 onward	up to 8 days
H-SVLYFDDSSNVILKKYRNMV-OH [p[113−132]]	induce	steadily decreased over time	continuously observed during the treatment period	overtime increasing	up to 8 day	indistinguishable from non-treated OA HACs	similar	up to 8 days
